Experimental data reported in ChEMBL document CHEMBL2321655, “Insulin-like growth factor-1 receptor inhibitors: a potential cancer treatment: patent highlight” (ACS Med Chem Lett, 2013).

Assays:
HT-29 = experiment: Antiproliferative activity against human HT-29 cells; type: functional, cell-based
MCF7 = experiment: Antiproliferative activity against human MCF7 cells; type: functional, cell-based

Row | IC50 (HT-29) [nM] | IC50 (MCF7) [nM] | SMILES
1 | 2800 | 800 | NC(=O)c1[nH]c2c(NC3CCOCC3)cc(Cl)cc2c1S(=O)(=O)N1CCOC(COc2ccccc2)C1 (stereo not drawn)
2 | > 10000 | 2200 | NC(=O)c1[nH]c2c(N)cc(Cl)cc2c1S(=O)(=O)N1CCOC(COc2ccccc2)C1 (stereo not drawn)
3 | 1700 | 900 | CCOC(=O)N1CCC(Nc2cc(Cl)cc3c(S(=O)(=O)N4CCOC(COc5ccccc5)C4)c(C(N)=O)[nH]c23)CC1 (stereo not drawn)
4 | 5300 | < 1000 | N#CCCNc1cc(Cl)cc2c(S(=O)(=O)N3CCOC(COc4ccccc4)C3)c(C(N)=O)[nH]c12 (stereo not drawn)
